SMILES strings stand for the structures.

Data set [1] deals with Rattus norvegicus. In words: Anticonvulsant activity in orally dosed Wistar rat after 2 hrs by PTZ test. To be noted: po. The data set is classed as functional.
In data set [2] the test system is Rattus norvegicus. In words: Anticonvulsant activity in orally dosed Wistar rat after 4 hrs by MES test. In kind it is functional. To be noted: po.
The subject of data set [3] is Rattus norvegicus. In words: Neurotoxicity in orally dosed Wistar rat after 2 hrs by RotoRod test. In kind it is toxicity, organism-based. To be noted: in vivo, po.
The nature of data set [4]: Potentiation of GABA-induced current in rat cortical neurons at 100 uM by whole-cell patch clamp technique. In kind it is functional.
A short description of data set [5]: Inhibition of voltage dependent sodium current in rat cortical neurons at 100 uM by whole-cell patch clamp technique. In kind it is functional. A general note: The patch-clamp technique gives a direct electrical read-out from membranes.
The species named for data set [6] is Rattus norvegicus. To be noted: Membrane, 10 uM.
Data set [7] concerns Rattus norvegicus. Description: Anticonvulsant activity in orally dosed Wistar rat after 1 hr by PTZ test. The data set is classed as functional. The conditions noted are these: po.
The subject of data set [8] is Rattus norvegicus. Description: Anticonvulsant activity in orally dosed Wistar rat after 2 hrs by MES test. The data set is classed as functional. The conditions noted are these: po.
Data set [9] relates to Rattus norvegicus. In words: Neurotoxicity in orally dosed Wistar rat after 1 hr by RotoRod test. The data set is classed as toxicity, organism-based. To be noted: in vivo, po. For orientation: In the rotarod test animals must keep their balance on a rotating rod.
Data set [10] has as its system Rattus norvegicus. Description: Anticonvulsant activity in orally dosed Wistar rat after 0.5 hr by PTZ test. The data set is classed as functional. To be noted: po.
The nature of data set [11]: Potentiation of GABA-induced current in rat cortical neurons at 10 uM by whole-cell patch clamp technique. The data set is classed as functional.
The test system of data set [12] is Rattus norvegicus. Description: Anticonvulsant activity in orally dosed Wistar rat after 1 hr by MES test. The conditions noted are these: po. The data set is classed as functional.
Data set [13] concerns Rattus norvegicus. In words: Anticonvulsant activity in orally dosed Wistar rat after 3 hrs by PTZ test. In kind it is functional. To be noted: po.
The test system of data set [14] is Rattus norvegicus. Description: Anticonvulsant activity in orally dosed Wistar rat after 0.5 hrs by MES test. In kind it is functional. To be noted: po.
For data set [15], the system named is Rattus norvegicus. Description: Neurotoxicity in orally dosed Wistar rat after 0.5 hrs by RotoRod test. The data set is classed as toxicity, organism-based. The conditions noted are these: in vivo, po.
A short description of data set [16]: Inhibition of voltage dependent sodium current in rat cortical neurons at 10 uM by whole-cell patch clamp technique. In kind it is functional.
Data set [17] deals with Rattus norvegicus. Description: Neurotoxicity in orally dosed Wistar rat after 4 hrs by RotoRod test. The data set is classed as toxicity, organism-based. The conditions noted are these: in vivo, po.
Data set [18] deals with Rattus norvegicus. Description: Anticonvulsant activity in orally dosed Wistar rat after 0.3 hrs by PTZ test. The data set is classed as functional. To be noted: po.
Data set [19] is described as follows: Displacement of [3H]flunitrazepam from benzodiazepine receptor in rat neuronal membranes at 10 uM.

For `c1ccc(-c2noc(Cn3cncn3)n2)cc1`, the results for the ED50 with Rattus norvegicus [1], in the data set with Rattus norvegicus [2] and in the data set on Rattus norvegicus [3] were 37 mg/kg, 13.1 mg/kg and 77 mg/kg, respectively. In addition, the Activity in data set [4] is recorded as 286%. In data set [5], the inhibition – broadly, the change of the read-out against control, counted positive when it falls – at 100 µM came to 8%. Besides, the inhibition in the data set filed under Rattus norvegicus [6] is 2.7%.

Consider `Clc1ccc(-c2nc(Cn3cncn3)no2)cc1`, for which the median effective dose (ED50) (commonly the dose at which the effect has come halfway, by size or by number of responders) with Rattus norvegicus [7] is over 100 mg/kg.

For the compound `Cc1ccc(-c2noc(Cn3cncn3)n2)cc1`, the ED50 with Rattus norvegicus [7] is 76.5 mg/kg; in the data set with Rattus norvegicus [8], over 70 mg/kg; in the data set on Rattus norvegicus [9], 171 mg/kg.

As for `Cc1cccc(-c2noc(Cn3cncn3)n2)c1`, the ED50 was 95.9 mg/kg in the data set on Rattus norvegicus [10] and 219 mg/kg in the data set with Rattus norvegicus [9]. Also, the figures for the Activity in data set [4] and in data set [11] were 387% and 110%, respectively. Also, in [5], the inhibition at 100 µM was 22%. The inhibition in the data set filed under Rattus norvegicus [6] is -1.1%.

As for `c1ccc(-c2nc(Cn3cncn3)no2)cc1`, the results for the ED50 in the data set on Rattus norvegicus [7], in the data set with Rattus norvegicus [12] and in the data set on Rattus norvegicus [9] were 25.5 mg/kg, 14.6 mg/kg and 335 mg/kg, respectively. Besides, the Activity in data set [4] is 210%; in data set [11], 131%. Further, the inhibition at 100 µM in [5] was determined as 9%. The inhibition in the data set listed under Rattus norvegicus [6] was -3.1%.

`Cc1cccc(-c2nc(Cn3cncn3)no2)c1`: the ED50 in the data set on Rattus norvegicus [13] is over 50 mg/kg; in the data set on Rattus norvegicus [14], under 50 mg/kg; with Rattus norvegicus [15] it was over 50 mg/kg.

For the compound `Fc1cccc(-c2noc(Cn3cncn3)n2)c1`, the ED50 in the data set on Rattus norvegicus [7] came to 39.2 mg/kg; with Rattus norvegicus [12], 26.2 mg/kg; in the data set with Rattus norvegicus [9], 128 mg/kg. Also, in data set [4], the Activity is recorded as 212%. Also, the inhibition at 100 µM in data set [5] is 12%. Further, in the data set filed under Rattus norvegicus [6], the inhibition is -1.6%.

In the data set on Rattus norvegicus [9], `Clc1ccc(-c2noc(Cn3ccnc3)n2)cc1` had an ED50 of over 500 mg/kg. Moreover, the Activity in [4] is reported as 298%; in data set [11], 103%. In [5], the inhibition at 100 µM amounted to 72%. Further, in the data set listed under Rattus norvegicus [6], the inhibition came to 0.2%.

In the case of `Fc1cccc(-c2nc(Cn3cncn3)no2)c1`, the median effective dose (ED50) with Rattus norvegicus [7] is 73.9 mg/kg; in the data set on Rattus norvegicus [15] it was under 250 mg/kg.

Take `Fc1ccccc1-c1noc(Cn2cncn2)n1`: the 50% effective dose (ED50) in the data set with Rattus norvegicus [1] is under 50 mg/kg; in the data set with Rattus norvegicus [8] it was 44.3 mg/kg; in the data set with Rattus norvegicus [3], under 250 mg/kg. For the same compound, the Activity in [4] is reported as 191%. Besides, the inhibition in the data set filed under Rattus norvegicus [6] came to 2.2%.

Take `c1ccc(-c2noc(Cn3ccnc3)n2)cc1`: the 50% effect level in the data set with Rattus norvegicus [8] (ED50) was put at a dose of 5.8 mg/kg. Further, in [4], the Activity is listed as 134%. The inhibition at 100 µM in [5] amounted to 83%. The inhibition at 10 µM in [16] was 30%. In the data set listed under Rattus norvegicus [6], the inhibition is 0.6%.

Regarding `Fc1ccc(-c2nc(Cn3cncn3)no2)cc1`, the ED50 in the data set with Rattus norvegicus [17] is under 150 mg/kg; in the data set on Rattus norvegicus [18], 15.2 mg/kg.

In the case of `CN1C(=O)CN=C(c2ccccc2)c2cc(Cl)ccc21` [DIAZEPAM], the Ki (commonly a dissociation constant, usually derived from enzyme kinetics or from competition with a known ligand) in [19] worked out at 6.8 nM. In addition, in data set [11], the Activity is 216%. Further, in the data set filed under Rattus norvegicus [6], the inhibition is over 99%.

Take `Clc1ccc(-c2noc(Cn3cncn3)n2)cc1`: the ED50 is 29.5 mg/kg in the data set on Rattus norvegicus [1], 21.8 mg/kg with Rattus norvegicus [12], 47.2 mg/kg in the data set with Rattus norvegicus [14] and under 100 mg/kg with Rattus norvegicus [9]. The figures for the Activity in [4] and in data set [11] were 553% and 141%, respectively. Also, the inhibition at 100 µM in [5] came out at 31%. In addition, the inhibition in the data set filed under Rattus norvegicus [6] is -8%.

(Values after ChEMBL document CHEMBL1147192, “New GABA-modulating 1,2,4-oxadiazole derivatives and their anticonvulsant activity” (Eur J Med Chem, 2007).)
